Test results: patent US20140275090A1, “BILE ACID RECYCLING INHIBITORS FOR TREATMENT OF PRIMARY SCLEROSING CHOLANGITIS AND INFLAMMATORY BOWEL DISEASE” (Lumena Pharmaceuticals, Inc., priority 2013, published 2014)

Assays:
[1] = Systemic exposure of LUM001 in patients under 18 years (study NB-00-02-014); assay type: in vivo, human; details: QD, day eight
Method: LUM001 has been administered to forty patients under the age of 18 years old. […] The drug was administered once-a-day (QD) in the morning for fourteen days. […] These doses are similar to those using to treat patients with PSC-IBD or PSC.

[2] = system: Hepatic Cholesterol 7α-hydroxylase; assay: Cholesterol 7-α hydroxylase activity assay, hamster liver microsomes; assay type: in vivo, golden Syrian hamster; details: 28 days
Excerpt: Male golden Syrian hamsters (126-147 gm) were obtained from Charles Rivers Laboratories and were single housed in a constant temperature environment with alternating 12-hour light and dark cycles. Hamsters were fed Teklad 7001 rodent meal chow at libitum for two weeks before the experimental studies began and switched to Teklad 7001 rodent meal chow supplemented with 0.24% cholesterol on day one of the 28-day experiment. Water was continuously available to the animals. Hamsters were assigned to groups in a manner that normalized each group by pretreatment body weights. SD-5613 was dissolved in an aqueous solution of 0.2% (w/v) Tween 80 and administered Q.D. by intragastric gavage between 9 a.m. and 10 a.m. each morning using a syringe fitted with a flexible feeding tube. Blood samples were collected after 14- and 28-day treatment periods by orbital sinus and cardiac puncture, respectively. Hamsters were anesthetized but not fasted prior to blood collections. Fecal samples were collected during a 48-hour period at the end of days 14 and 28 (i.e. days 13-14 and 27-28). Hamsters were sacrificed using carbon dioxide asphyxiation to obtain the following tissue samples: liver, kidneys, colon and cecum.
Homogenates of three gram liver tissue samples were prepared in 25 ml homogenization buffer [0.1 M potassium phosphate buffer, pH 7.2, containing 0.1 M sucrose, 50 mM KCl, 50 mM NaF, 5 mM ethylene glycol-bis(β-aminoethyl ether)-N,N,N′,N′-tetraacetic acid (EGTA), 1 mM EDTA, 3 mM dithiothreitol (DTIT), and 1 mM phenylmethylsulfonyl fluoride (PMSF)]. A microsomal fraction was prepared by centrifugation at 10,000×g for ten minutes. The supernatant was subjected to centrifugation at 105,000×g for two hours. The microsomal fraction was resuspended in a 0.1 M Na tetrapyrophosphate buffer (pH 10), with 50 mM NaF, and 1 mM EDTA, and subjected to centrifugation for one hour at 105,000×g. The microsomal fraction was resuspended in the homogenization buffer, and assayed for protein content by Coomassie Protein Plus Assay reagent.
Liver microsomes (1 mg) or 7-α-hydroxycholesterol standard solutions were preincubated for five minutes at 37° C. in a rocking water bath with 500 μl 5× buffer, 1.7 ml water, and 50 μl 0.1% (w/v) cholesterol as substrate in excess. The 5× buffer consists of 0.42 M Na2HPO4, 0.25 mM NaF, 0.08 M KH2PO4, 5 mM EDTA and 10 mM DTT. The reaction tubes were incubated at 37° C. in a rocking water bath throughout the remainder of the assay protocol, with cessation of rocking only for the period of time needed to add solutions. After the preincubation period, 250 μl of 10 mM NADPH was added and incubated for 5 minutes to allow enzymatic conversion of the cholesterol substrate to 7-α-hydroxycholesterol by endogenous 7-α-hydroxylase. The reaction was stopped by addition of 75 μl of 20% sodium cholate. After four minutes, 25 μl of 100 μM 20-α-hydroxycholesterol was added to each tube as an internal recovery standard. The tubes were allowed to rock briefly in the water bath to mix, then 40 μl of 25 U/ml cholesterol oxidase was added and the tubes were incubated for ten minutes to convert 7-α-hydroxycholesterol and 20-α-hydroxycholesterol to their ketone forms, 7-α-hydroxycholesten-3-one and 20-α-hydroxycholesten-3-one. After the enzymatic reactions were completed, the ketone products were isolated by four sequential extractions in 20, 10, 10 and 10 ml petroleum ether, respectively. The collected volumes were evaporated to dryness under a flow of nitrogen gas between each extraction step using a heat block set at 50° C. The final dried samples were resuspended in 125 μl mobile phase solution consisting of 70:30 acetonitrile/methanol for analysis by reversed phase HPLC. Chromatography was performed on a 4.6×250 mm Beckman Ultrosphere ODS reverse phase column in mobile phase solution. […]

Q: What does the source list for `CCCCC1(CCCC)CS(=O)(=O)c2ccc(N(C)C)cc2[C@@H](c2ccc(OCc3ccc(C[N+]45CCN(CC4)CC5)cc3)cc2)[C@H]1O` [LUM001]?
A: systemic exposure [1]: minimally absorbed; Hepatic Cholesterol 7α-hydroxylase ([2]; 5 mg/kg/day): 50.9 ± 4.8 pmol/mg-port/min; Hepatic Cholesterol 7α-hydroxylase, % change from vehicle group ([2]; 5 mg/kg/day): (+52) %; Hepatic Cholesterol 7α-hydroxylase ([2]; 15 mg/kg/day): 56.5 ± 4.5 pmol/mg-port/min; Hepatic Cholesterol 7α-hydroxylase, % change from vehicle group ([2]; 15 mg/kg/day): (+69) %; Hepatic Cholesterol 7α-hydroxylase ([2]; 50 mg/kg/day): 63.8 ± 5.6 pmol/mg-port/min; Hepatic Cholesterol 7α-hydroxylase, % change from vehicle group ([2]; 50 mg/kg/day): (+90) %
